We go through 18 molecules from US11318137B2, “Quinazoline compounds as modulators of Ras signaling” (VANDERBILT UNIVERSITY, priority 2017, dated 2022).

Usually EC50 stands for the concentration that produces a half-maximal response. Higher therefore signals lower potency in that assay.

Assay [1] has as its target T1, SOS-mediated nucleotide exchange on Ras (Homo sapiens, UniProt Q07889).
T1 sequence (Q07889 1-1333): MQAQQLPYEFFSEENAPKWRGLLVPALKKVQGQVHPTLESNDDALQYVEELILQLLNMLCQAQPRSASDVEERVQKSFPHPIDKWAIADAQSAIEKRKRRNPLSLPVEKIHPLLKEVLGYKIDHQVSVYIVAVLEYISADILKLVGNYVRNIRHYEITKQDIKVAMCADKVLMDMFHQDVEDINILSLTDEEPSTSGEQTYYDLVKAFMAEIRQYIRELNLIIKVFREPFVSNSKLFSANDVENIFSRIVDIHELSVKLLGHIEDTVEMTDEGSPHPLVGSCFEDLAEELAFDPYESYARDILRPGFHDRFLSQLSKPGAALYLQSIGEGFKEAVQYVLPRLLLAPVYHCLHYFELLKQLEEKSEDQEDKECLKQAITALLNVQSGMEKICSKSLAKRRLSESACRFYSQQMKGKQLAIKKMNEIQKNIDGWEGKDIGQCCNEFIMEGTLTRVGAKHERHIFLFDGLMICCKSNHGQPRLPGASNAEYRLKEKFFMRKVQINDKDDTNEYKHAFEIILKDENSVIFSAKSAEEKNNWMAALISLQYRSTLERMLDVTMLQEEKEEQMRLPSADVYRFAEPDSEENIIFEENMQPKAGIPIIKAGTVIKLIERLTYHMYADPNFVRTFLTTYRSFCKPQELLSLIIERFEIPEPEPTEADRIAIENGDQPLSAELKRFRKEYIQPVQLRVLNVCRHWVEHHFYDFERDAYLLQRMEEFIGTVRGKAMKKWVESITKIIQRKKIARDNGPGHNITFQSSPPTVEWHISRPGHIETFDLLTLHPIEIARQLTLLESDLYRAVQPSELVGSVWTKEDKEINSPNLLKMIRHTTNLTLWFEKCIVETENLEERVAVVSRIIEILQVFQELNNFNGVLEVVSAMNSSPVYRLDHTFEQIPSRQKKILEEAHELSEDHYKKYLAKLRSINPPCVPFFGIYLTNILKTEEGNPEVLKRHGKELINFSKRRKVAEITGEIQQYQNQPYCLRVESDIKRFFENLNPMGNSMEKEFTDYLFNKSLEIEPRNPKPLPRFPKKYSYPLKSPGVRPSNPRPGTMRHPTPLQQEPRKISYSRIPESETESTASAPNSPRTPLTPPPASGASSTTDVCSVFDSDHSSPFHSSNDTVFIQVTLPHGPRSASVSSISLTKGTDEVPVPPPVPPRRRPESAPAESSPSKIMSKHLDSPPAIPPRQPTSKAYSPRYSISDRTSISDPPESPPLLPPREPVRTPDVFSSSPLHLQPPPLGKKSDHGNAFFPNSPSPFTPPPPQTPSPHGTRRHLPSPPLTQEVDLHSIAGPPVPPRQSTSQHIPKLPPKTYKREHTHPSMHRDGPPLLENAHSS
Briefly: SOS-mediated nucleotide exchange on Ras (BODIPY-GDP fluorescence). It is filed as biochemical. The following applies: Ras loaded with BODIPY-GDP, GTP and SOS added; EC50 from derived exchange rates. The gist of the method:
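Compound, then GTP and SOS, were added to buffered Ras preloaded with BODIPY-GDP, and the fluorescence change from labeled GDP being exchanged for GTP was followed over time. Rates came from single-exponential fits, and EC50 from a four-parameter fit of mean rate against compound concentration.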

The test system of assay [2] is H727 lung cancer cell lines, which contain a G12V K-Ras mutation. Briefly: Inhibition of cancer cell proliferation (CellTiter-Glo, 3 days). Type of assay: cell-based. The conditions noted are these: Homo sapiens, NCI-H727, 72 h, H727 cells, 3 days at 37° C., normalized to DMSO control, read-out: Cell proliferation activity (H727 cancer cell line proliferation IC50). The protocol:
C. Inhibition of Cancer Cell Proliferation
Compounds of the present invention were measured for their ability to kill H727 lung cancer cell lines, which contain a G12V K-Ras mutation. Cell proliferation experiments were conducted in 96-well plates. Cells were plated at 1000 cells/well, incubated overnight, followed by treatment with a dose range of compound for 3 days at 37° C. Cell proliferation was assessed using a CellTiter-Glo assay (Promega) according to the manufacturer's protocol. Data were normalized to DMSO control. IC50 values were determined using a four-parameter dose-response (variable slope) equation. These assays are performed in a manner analogous to the assay disclosed in: Burns, M. C.; Sun, Q.; Daniels, R. N.; Camper, D. V.; Kennedy, J. P.; Phan, J.; Olejniczak, E. O.; Lee, T.; Waterson, A. G.; Rossanese, O. W.; Fesik, S. W. “Approach for targeting Ras with small molecules that activate SOS-mediated nucleotide exchange” Proc. Natl. Acad. Sci. 2014; 11(9): 3401-3406. PMCID: PMC3948241.
In general terms: ATP-based viability assays read luminescence as a measure of living cells.

Assay [3] concerns the target T2, Son of Sevenless (SOS) (Homo sapiens, UniProt Q07889).
T2 sequence (Q07889 564-1049 limits assumed): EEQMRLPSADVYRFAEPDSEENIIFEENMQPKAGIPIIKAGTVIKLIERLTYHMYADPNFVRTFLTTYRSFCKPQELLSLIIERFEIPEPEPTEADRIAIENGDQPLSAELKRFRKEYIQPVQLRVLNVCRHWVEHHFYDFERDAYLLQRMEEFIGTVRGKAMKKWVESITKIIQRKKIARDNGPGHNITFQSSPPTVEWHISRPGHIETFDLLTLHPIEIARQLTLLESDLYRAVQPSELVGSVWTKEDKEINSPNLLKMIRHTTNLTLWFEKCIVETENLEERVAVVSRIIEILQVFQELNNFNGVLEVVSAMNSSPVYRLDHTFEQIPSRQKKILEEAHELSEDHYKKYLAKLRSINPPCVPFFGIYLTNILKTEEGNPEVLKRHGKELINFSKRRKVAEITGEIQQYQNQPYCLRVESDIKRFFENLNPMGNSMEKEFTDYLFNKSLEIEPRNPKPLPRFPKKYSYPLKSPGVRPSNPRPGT
Briefly: Binding to SOS, fluorescence polarization anisotropy (FPA) displacement of FITC-conjugated probe. The following applies: binding affinity calculated from IC50 of FITC-probe displacement, read-out: Binding affinities (binding affinity to SOS). The gist of the method: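 FITC-labelled probe incubated with SOS in buffer; displacement by test compound across a dose range read as fluorescence anisotropy change. IC50 from four-parameter variable-slope fit, binding affinity calculated from IC50.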

Molecule `C[C@@H](Nc1nc(Nc2ccc(F)c(Cl)c2)nc2ccccc12)C1CC1` [Example 1, (R)—N^2-(3-chloro-4-fluorophenyl)-N^4-(1-cyclopropylethyl)quinazoline-2,4-diamine] had a 50% effective concentration (EC50) in assay [1] of 5 to 30 µM. For the same molecule, the IC50 in assay [2] was 1 to 5 µM.
In the case of `C[C@@H](Nc1nc(NCC2CCCCCC2)nc2ccccc12)C1CC1` [Example 5, (R)—N^2-(cycloheptylmethyl)-N^4-(1-cyclopropylethyl)quinazoline-2,4-diamine], in assay [1], the 50% effective concentration (EC50) was 5 to 30 µM. The IC50 in assay [2] lay in the range of 1 to 5 µM. Besides, in assay [3], the Ki is over 5 µM.
On the same counts, the results for `Fc1cc(F)cc(Nc2nc(NCc3ncc[nH]3)c3ccccc3n2)c1` [Example 22, N^4-((1H-imidazol-2-yl)methyl)-N^2-(3,5-difluorophenyl)quinazoline-2,4-diamine] are over 30 µM, over 20 µM and over 5 µM.
The molecule `CC[C@@H](Nc1nc(Nc2ccc(F)c(Cl)c2)nc2ccccc12)c1cccs1` [Example 39, (R)—N^2-(3-chloro-4-fluorophenyl)-N^4-(1-(thiophen-2-yl)propyl)quinazoline-2,4-diamine] displayed an EC50 in assay [1] of 1 to 5 µM. The IC50 in assay [2] was 5 to 20 µM. Further, in assay [3], the Ki is over 5 µM.
`CC[C@@H](Nc1nc(Nc2ccc(F)c(Cl)c2)nc2c(CCN)cccc12)C1CC1` [Example 50, (R)-8-(2-aminoethyl)-N^2-(3-chloro-4-fluorophenyl)-N^4-(1-cyclopropylpropyl)quinazoline-2,4-diamine]: the EC50 in assay [1] was 1 to 5 µM. Further, in assay [2], the IC50 was in the range of 1 to 5 µM.
In the case of `CC[C@@H](Nc1nc(Nc2ccc(F)c(Cl)c2)nc2c(C3=CCNCC3)cccc12)C1CC1` [Example 51, (R)—N^2-(3-chloro-4-fluorophenyl)-N^4-(1-cyclopropylpropyl)-8-(1,2,3,6-tetrahydropyridin-4-yl)quinazoline-2,4-diamine], the EC50 in assay [1] fell in the range of 1 to 5 µM. In addition, the IC50 in assay [2] was under 1 µM. In addition, the Ki in assay [3] was under 1 µM.
`CC[C@@H](Nc1nc(Nc2ccc(F)c(Cl)c2)nc2c(C3=CCNCC3)cccc12)c1cccs1` [Example 100, (R)—N^2-(3-chloro-4-fluorophenyl)-8-(1,2,3,6-tetrahydropyridin-4-yl)-N^4-(1-(thiophen-2-yl)propyl)quinazoline-2,4-diamine] had an EC50 in assay [1] of 5 to 30 µM. In addition, the IC50 in assay [2] is under 1 µM.
In the same order, the values of `C[C@@H](Nc1nc(Nc2cc(F)cc(F)c2)nc2ccc(CCN)cc12)C1CC1` [Example 109, (R)-6-(2-aminoethyl)-N^4-(1-cyclopropylethyl)-N^2-(3,5-difluorophenyl)quinazoline-2,4-diamine] are 1 to 5 µM and under 1 µM.
On to `C[C@@H](Nc1nc(Cc2cc(F)cc(F)c2)nc2ccccc12)C1CC1` [Example 110, (R)—N-(1-cyclopropylethyl)-2-(3,5-difluorobenzyl)quinazolin-4-amine], for which the EC50 in assay [1] is 5 to 30 µM. The IC50 in assay [2] is 5 to 20 µM.
`C[C@@H](Nc1nc(Nc2ccc(F)c(Cl)c2)nc2c(N3CCOCC3)cccc12)C1CC1` [Example 124, (R)—N^2-(3-chloro-4-fluorophenyl)-N^4-(1-cyclopropylethyl)-8-morpholinoquinazoline-2,4-diamine] came in with an EC50 in assay [1] of 5 to 30 µM. Further, the Ki in assay [3] was over 5 µM.
On the same counts, the results for `CC[C@@H](Nc1nc(NCC2CCCCC2)nc2c(C3=CCNCC3)cccc12)C1CC1` [Example 125, (R)—N^2-(cyclohexylmethyl)-N^4-(1-cyclopropylpropyl)-8-(1,2,3,6-tetrahydropyridin-4-yl)quinazoline-2,4-diamine] are under 1 µM and under 1 µM.
On the same counts, the results for `CC[C@@H](Nc1nc(Nc2cc(C)cc(F)c2)nc2c(C3=CCNCC3)cccc12)C1CC1` [Example 126, (R)—N^4-(1-cyclopropylpropyl)-N^2-(3-fluoro-5-methylphenyl)-8-(1,2,3,6-tetrahydropyridin-4-yl)quinazoline-2,4-diamine] are 1 to 5 µM and under 1 µM.
In the same order, the values of `CC[C@@H](Nc1nc(NCC2CCCCC2)nc2c(CCN)cccc12)C1CC1` [Example 127, (R)-8-(2-aminoethyl)-N^2-(cyclohexylmethyl)-N^4-(1-cyclopropylpropyl)quinazoline-2,4-diamine] are 1 to 5 µM and under 1 µM.
In assay [1], `CC[C@@H](Nc1nc(Nc2cc(C)cc(F)c2)nc2c(CCN)cccc12)C1CC1` [Example 128, (R)-8-(2-aminoethyl)-N^4-(1-cyclopropylpropyl)-N^2-(3-fluoro-5-methylphenyl)quinazoline-2,4-diamine] yielded an EC50 of 1 to 5 µM. The Ki in assay [3] was 1 to 5 µM.
For the molecule `C[C@@H](Nc1nc(Nc2ccc(F)c(Cl)c2)nc2c(CN)cccc12)C(C)(C)C` [Example 130, (R)-8-(aminomethyl)-N^2-(3-chloro-4-fluorophenyl)-N^4-(3,3-dimethylbutan-2-yl)quinazoline-2,4-diamine], the EC50 in assay [1] fell in the range of 5 to 30 µM. Further, in assay [3], the Ki was over 5 µM.
In the same order, the values of `Cc1cc(F)cc(Nc2nc(N[C@H](C)C(C)(C)C)c3cccc(CN)c3n2)c1` [Example 131, (R)-8-(aminomethyl)-N^4-(3,3-dimethylbutan-2-yl)-N^2-(3-fluoro-5-methylphenyl)quinazoline-2,4-diamine] are 5 to 30 µM and over 5 µM.
In the same order, the values of `C[C@@H](Nc1nc(Nc2ccc(F)c(Cl)c2)nc2c(CN)cccc12)c1cccs1` [Example 132, (R)-8-(aminomethyl)-N^2-(3-chloro-4-fluorophenyl)-N^4-(1-(thiophen-2-yl)ethyl)quinazoline-2,4-diamine] are 5 to 30 µM and 1 to 5 µM.
In turn, `C[C@@H](Nc1nc(NCc2cccc(Cl)c2F)nc2c(C3=CCNCC3)cccc12)c1cccs1` [Example 133, (R)—N^2-(3-chloro-2-fluorobenzyl)-8-(1,2,3,6-tetrahydropyridin-4-yl)-N^4-(1-(thiophen-2-yl)ethyl)quinazoline-2,4-diamine] had an EC50 in assay [1] of 5 to 30 µM. The Ki in assay [3] was 1 to 5 µM.
